± gives the expanded uncertainty stated by the source.
Settings: Liquid; for vapor or sublimation pressure: Closed cell (Static) method

CCC [propane]
Settings | vapor or sublimation pressure [kPa]
280 K | 583.1 ± 1.2
300 K | 999 ± 2.1
320 K | 1599.8 ± 3.3
340 K | 2432.2 ± 5
360 K | 3556.3 ± 7.2
365 K | 3894.1 ± 7.9
367 K | 4036.8 ± 8.2
369 K | 4184.4 ± 8.5

mass density [kg/m3]
Settings | 340 K | 360 K | 380 K | 400 K
3000 kPa, Vibrating tube method | 418.08 ± 0.51 | – | – | –
5000 kPa, Vibrating tube method | 433.15 ± 0.54 | 380.52 ± 0.48 | – | –
10000 kPa, Buoyancy - hydrostatic balance with magnetic suspension - two sinkers | 457.22 ± 0.51 | 423.91 ± 0.47 | 383.94 ± 0.42 | 334.82 ± 0.37
20000 kPa, Buoyancy - hydrostatic balance with magnetic suspension - one sinker | 486.49 ± 0.54 | 463.18 ± 0.52 | 438.11 ± 0.49 | 412.17 ± 0.46
30000 kPa, Buoyancy - hydrostatic balance with magnetic suspension - one sinker | 506.41 ± 0.56 | 486.97 ± 0.55 | 466.65 ± 0.53 | 446.42 ± 0.51
40000 kPa, Bellows volumetry | 521.92 ± 0.58 | 504.75 ± 0.56 | 486.9 ± 0.54 | 469.52 ± 0.52
50000 kPa, Bellows volumetry | 534.58 ± 0.6 | 519.13 ± 0.59 | 502.92 ± 0.57 | 487.17 ± 0.56
60000 kPa, Bellows volumetry | 545.76 ± 0.61 | 531.24 ± 0.6 | 516.27 ± 0.59 | 501.88 ± 0.58
70000 kPa, Bellows volumetry | 555.4 ± 0.62 | 541.74 ± 0.61 | 527.68 ± 0.6 | 514.4 ± 0.59
80000 kPa, Bellows volumetry | 564.13 ± 0.63 | 551.28 ± 0.62 | 537.77 ± 0.61 | 525.29 ± 0.6
90000 kPa, Bellows volumetry | 571.96 ± 0.64 | 559.54 ± 0.63 | 546.83 ± 0.62 | 534.99 ± 0.61
100000 kPa, Bellows volumetry | 579.21 ± 0.65 | 567.52 ± 0.64 | 555.08 ± 0.63 | 543.68 ± 0.62
120000 kPa, Bellows volumetry | 592 ± 0.67 | 581.13 ± 0.66 | 569.69 ± 0.65 | 559.13 ± 0.64
140000 kPa, Bellows volumetry | 603.23 ± 0.68 | 593.24 ± 0.67 | 582.4 ± 0.66 | 572.43 ± 0.65
160000 kPa, Bellows volumetry | 613.42 ± 0.74 | 603.94 ± 0.74 | 593.57 ± 0.74 | 584.27 ± 0.74
180000 kPa, Bellows volumetry | 622.47 ± 0.76 | 613.6 ± 0.75 | 603.76 ± 0.75 | 594.86 ± 0.75
200000 kPa, Bellows volumetry | 631.34 ± 0.78 | 622.28 ± 0.76 | 612.75 ± 0.77 | 604.47 ± 0.77
